This passage reports Dominant results from US20250231185A1, “Coronavirus T Cell Epitopes, Megapools and Uses Thereof” (La Jolla Institute for Immunology, priority 2021, published 2025).

In the first experiment the test system is CD8+ T cells. Briefly: Meta-analysis of published SARS-CoV-2 CD8 T cell epitope data curated in the IEDB (25 studies). Format: cell-based, human. As to conditions: CD8-restricted SARS-CoV-2 epitopes; Yes = recognized by 3 or more donors/different studies.
With 1287 (CVADYSVLY) [compound 1287], the Dominant entry was “Yes (more dominant epitopes are defined by being recognized by 3 or more donors/different studies)”. Still for that read-out and setting: under 1291 (KCYGVSPTK) [compound 1291] stands “Yes (more dominant epitopes are defined by being recognized by 3 or more donors/different studies)”; under 1296 (KIADYNYKL) [compound 1296], “Yes (more dominant epitopes are defined by being recognized by 3 or more donors/different studies)”; under 1297 (KLPDDFTGCV) [compound 1297], “Yes (more dominant epitopes are defined by being recognized by 3 or more donors/different studies)”.

Regarding 1298 (NLDSKVGGNY) [compound 1298], the Dominant result is listed as “Yes (more dominant epitopes are defined by being recognized by 3 or more donors/different studies)”.

Still in this experiment, the particulars now being: CD8S (D) Megapool, antigen S; dominant = recognized in 3 or more donors/studies.
1469 (YTNSFTRGVY) [compound 1469]: the Dominant result was “Yes (more dominant epitopes are defined by being recognized by 3 or more donors/different studies)”. Still for that read-out and setting: with 1470 (STQDLFLPFF) [compound 1470] the entry was “Yes (more dominant epitopes are defined by being recognized by 3 or more donors/different studies)”. As to 1471 (RFDNPVLPF) [compound 1471], the Dominant result is listed as “Yes (more dominant epitopes are defined by being recognized by 3 or more donors/different studies)”. The same measure, in the same setting: under 1472 (GVYFASTEK) [compound 1472] stands “Yes (more dominant epitopes are defined by being recognized by 3 or more donors/different studies)”. As for 1473 (TEKSNIIRGW) [compound 1473], the Dominant entry is reported as “Yes (more dominant epitopes are defined by being recognized by 3 or more donors/different studies)”. On the same count and under the same terms, with 1474 (TLDSKTQSL) [compound 1474] the entry was “Yes (more dominant epitopes are defined by being recognized by 3 or more donors/different studies)”. Same read-out and setting: under 1475 (SSANNCTFEY) [compound 1475] stands “Yes (more dominant epitopes are defined by being recognized by 3 or more donors/different studies)”; under 1476 (FVFKNIDGY) [compound 1476], “Yes (more dominant epitopes are defined by being recognized by 3 or more donors/different studies)”; under 1477 (IYSKHTPINL) [compound 1477], “Yes (more dominant epitopes are defined by being recognized by 3 or more donors/different studies)”. Still for that read-out and setting: with 1478 (TPINLVRDL) [compound 1478] the entry was “Yes (more dominant epitopes are defined by being recognized by 3 or more donors/different studies)”; with 1479 (LLALHRSYL) [compound 1479], “Yes (more dominant epitopes are defined by being recognized by 3 or more donors/different studies)”; with 1480 (WTAGAAAYY) [compound 1480], “Yes (more dominant epitopes are defined by being recognized by 3 or more donors/different studies)”.

On to 1481 (YLQPRTFLL) [compound 1481], for which the Dominant result is “Yes (more dominant epitopes are defined by being recognized by 3 or more donors/different studies)”. 1482 (RISNCVADY) [compound 1482]: the Dominant entry is recorded as “Yes (more dominant epitopes are defined by being recognized by 3 or more donors/different studies)”. On the same count and under the same terms, with 1483 (CVADYSVLY) [compound 1483] the entry was “Yes (more dominant epitopes are defined by being recognized by 3 or more donors/different studies)”; with 1484 (KCYGVSPTK) [compound 1484], “Yes (more dominant epitopes are defined by being recognized by 3 or more donors/different studies)”. On the same count and under the same terms, with 1485 (KIADYNYKL) [compound 1485] the entry was “Yes (more dominant epitopes are defined by being recognized by 3 or more donors/different studies)”.

As for 1486 (KLPDDFTGCV) [compound 1486], the Dominant result is “Yes (more dominant epitopes are defined by being recognized by 3 or more donors/different studies)”. The same measure, in the same setting: under 1487 (NLDSKVGGNY) [compound 1487] stands “Yes (more dominant epitopes are defined by being recognized by 3 or more donors/different studies)”; under 1488 (NYNYLYRLF) [compound 1488], “Yes (more dominant epitopes are defined by being recognized by 3 or more donors/different studies)”.

For the substance 1489 (YFPLQSYGF) [compound 1489], the Dominant result is listed as “Yes (more dominant epitopes are defined by being recognized by 3 or more donors/different studies)”. On the same count and under the same terms, under 1490 (FQPTNGVGY) [compound 1490] stands “Yes (more dominant epitopes are defined by being recognized by 3 or more donors/different studies)”. Same read-out and setting: with 1491 (GPKKSTNLV) [compound 1491] the entry was “Yes (more dominant epitopes are defined by being recognized by 3 or more donors/different studies)”.

With 1493 (IGAEHVNNSY) [compound 1493], the Dominant result is “Yes (more dominant epitopes are defined by being recognized by 3 or more donors/different studies)”. On to 1494 (SPRRARSVA) [compound 1494], for which the Dominant entry is “Yes (more dominant epitopes are defined by being recognized by 3 or more donors/different studies)”. The same measure, in the same setting: under 1495 (SVASQSIIAY) [compound 1495] stands “Yes (more dominant epitopes are defined by being recognized by 3 or more donors/different studies)”; under 1496 (VASQSIIAY) [compound 1496], “Yes (more dominant epitopes are defined by being recognized by 3 or more donors/different studies)”. Take 1497 (SIIAYTMSL) [compound 1497]: the Dominant entry is recorded as “Yes (more dominant epitopes are defined by being recognized by 3 or more donors/different studies)”. With 1498 (FTISVTTEIL) [compound 1498], the Dominant result is listed as “Yes (more dominant epitopes are defined by being recognized by 3 or more donors/different studies)”. For 1499 (TEILPVSMTK) [compound 1499], the Dominant entry was “Yes (more dominant epitopes are defined by being recognized by 3 or more donors/different studies)”.

In the case of 1500 (TECSNLLLQY) [compound 1500], the Dominant result is on record as “Yes (more dominant epitopes are defined by being recognized by 3 or more donors/different studies)”. On the same count and under the same terms, under 1501 (LLQYGSFCT) [compound 1501] stands “Yes (more dominant epitopes are defined by being recognized by 3 or more donors/different studies)”. On the same count and under the same terms, under 1502 (LLFNKVTLA) [compound 1502] stands “Yes (more dominant epitopes are defined by being recognized by 3 or more donors/different studies)”; under 1503 (LTDEMIAQY) [compound 1503], “Yes (more dominant epitopes are defined by being recognized by 3 or more donors/different studies)”. In the case of 1504 (MIAQYTSAL) [compound 1504], the Dominant entry is “Yes (more dominant epitopes are defined by being recognized by 3 or more donors/different studies)”. On the same count and under the same terms, under 1506 (TQNVLYENQK) [compound 1506] stands “Yes (more dominant epitopes are defined by being recognized by 3 or more donors/different studies)”. Regarding 1507 (NQKLIANQF) [compound 1507], the Dominant entry is recorded as “Yes (more dominant epitopes are defined by being recognized by 3 or more donors/different studies)”. Regarding 1508 (VLNDILSRL) [compound 1508], the Dominant entry is “Yes (more dominant epitopes are defined by being recognized by 3 or more donors/different studies)”.
